# Laboratory results reported in paper PMC12404492, “The crystal structure of Thermus thermophilus UMP kinase complexed with a phosphoryl group acceptor and donor” (PLOS One, 2025).
# Molecular target: T1, ttUMPK (UMP kinase of Thermus thermophilus HB8) (Thermus thermophilus, UniProt P43891)
# T1 construct: gene pyrH; full-length gene in pET-11a (NdeI/BamHI), no tag mentioned; expressed in E. coli BL21(DE3), heat-treated; homohexamer by size exclusion
# Experiment: X-ray crystal structure, […] Å (second data set, PDB code not given)
# Format: binding
# Conditions: active site, most chains
# T1 sequence (P43891 whole entry): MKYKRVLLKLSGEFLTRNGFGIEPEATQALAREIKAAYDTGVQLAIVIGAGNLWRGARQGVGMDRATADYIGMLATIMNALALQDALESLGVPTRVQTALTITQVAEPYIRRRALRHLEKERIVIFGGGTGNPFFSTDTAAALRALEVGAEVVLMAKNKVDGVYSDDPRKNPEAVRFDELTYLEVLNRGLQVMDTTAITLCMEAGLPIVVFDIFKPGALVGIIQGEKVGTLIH
smiles,measurement,value
O=c1ccn([C@@H]2O[C@H](COP(=O)(O)O)[C@@H](O)[C@H]2O)c(=O)[nH]1 [UMP],"X-ray crystal structure, 2.5 Å (second data set, PDB code not given)","most of the bound uridine nucleotides in the active site are UMP, not UDP"
